pEC50, pIC50, pKi: −log10 of the molar value.
Tests used:
[1] = molecular target: C-X-C chemokine receptor type 4 (Homo sapiens, UniProt P61073); experiment: Displacement of [125I]-CXCL12 from human CXCR4 receptor expressed in Jurkat cells incubated for 2 hrs by radiolabeled ligand binding assay; format: cell-based
[2] = molecular target: T1, Atypical chemokine receptor 3 (Homo sapiens, UniProt P25106); experiment: Displacement of [125I]-CXCL12 from human CXCR7 receptor expressed in CHOK1 cell membranes incubated for 2 hrs by radiolabeled ligand binding assay; parameters: species or system CHO-K1; conditions: for pKi: read-out: Ki
[3] = molecular target: T1, Atypical chemokine receptor 3; experiment: Agonist activity at human CXCR7 receptor expressed in CHOK1 cell membranes assessed as increase in beta-arrestin recruitment incubated for 30 mins; format: cell-based, CHO-K1

T1 sequence (P25106 whole entry): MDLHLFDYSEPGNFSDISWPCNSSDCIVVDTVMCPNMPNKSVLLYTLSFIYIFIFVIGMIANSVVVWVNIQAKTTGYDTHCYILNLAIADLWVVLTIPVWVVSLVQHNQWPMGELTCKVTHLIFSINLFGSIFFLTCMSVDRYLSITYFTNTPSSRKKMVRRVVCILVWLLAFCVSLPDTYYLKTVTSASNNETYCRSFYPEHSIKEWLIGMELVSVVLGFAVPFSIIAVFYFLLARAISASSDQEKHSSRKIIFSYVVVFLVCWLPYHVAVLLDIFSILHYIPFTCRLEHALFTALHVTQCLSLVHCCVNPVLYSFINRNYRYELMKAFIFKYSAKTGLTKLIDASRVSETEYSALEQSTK
Sequence of C-X-C chemokine receptor type 4 (P61073 whole entry): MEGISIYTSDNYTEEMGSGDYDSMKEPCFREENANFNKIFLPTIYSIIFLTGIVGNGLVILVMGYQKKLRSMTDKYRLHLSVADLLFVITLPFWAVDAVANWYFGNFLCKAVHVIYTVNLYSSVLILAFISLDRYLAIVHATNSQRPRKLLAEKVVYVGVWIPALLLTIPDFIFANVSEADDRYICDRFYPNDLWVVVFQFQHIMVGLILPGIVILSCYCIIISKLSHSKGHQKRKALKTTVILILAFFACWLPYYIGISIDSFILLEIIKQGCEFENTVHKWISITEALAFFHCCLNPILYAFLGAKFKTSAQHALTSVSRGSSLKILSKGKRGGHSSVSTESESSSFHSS

| Structure (SMILES) | pIC50 [1] | pKi [2] | pEC50 [3] | Ki ([2]; read-out: pKi (converted)) |
| --- | --- | --- | --- | --- |
| NC(=O)C(c1ccccc1)(c1ccccc1)[C@@H]1CCN(CCOc2ccc(-c3nccs3)cc2)C1 | < 4.82 |  |  |  |
| Cc1noc(-c2ccc(OCCN3CC[C@@H](C(C(N)=O)(c4ccccc4)c4ccccc4)C3)cc2)n1 |  | 4.93 | < 5.00 |  |
| NC(=O)C(c1ccccc1)(c1ccccc1)[C@@H]1CCN(CCOc2ccc(-c3nnco3)cc2)C1 |  | 5.39 | < 5.00 | 4.17 µM |
| NC(=O)C(c1ccccc1)(c1ccccc1)[C@@H]1CCN(CCOc2ccc(C3=NCCO3)cc2)C1 |  | 5.18 | < 5.00 |  |

Source: ChEMBL document CHEMBL4616715, “Discovery of Diphenylacetamides as CXCR7 Inhibitors with Novel β-Arrestin Antagonist Activity” (ACS Med Chem Lett, 2020)
